Literature values as cited in article PMC13366575, “Structure−Activity Relationships among Inhibitors of Acinetobacter baumannii and Klebsiella pneumoniae 1-Deoxy-D-xylulose 5-Phosphate Reductoisomerase (DXR/IspC) − A Promising Target for Antibiotic Development” (ACS Infectious Diseases, 2026).
pIC50: −log10 of the molar value.

Biological target: KpIspC (Klebsiella pneumoniae, UniProt A6T4X5)
Sequence (A6T4X5 entry or part of it): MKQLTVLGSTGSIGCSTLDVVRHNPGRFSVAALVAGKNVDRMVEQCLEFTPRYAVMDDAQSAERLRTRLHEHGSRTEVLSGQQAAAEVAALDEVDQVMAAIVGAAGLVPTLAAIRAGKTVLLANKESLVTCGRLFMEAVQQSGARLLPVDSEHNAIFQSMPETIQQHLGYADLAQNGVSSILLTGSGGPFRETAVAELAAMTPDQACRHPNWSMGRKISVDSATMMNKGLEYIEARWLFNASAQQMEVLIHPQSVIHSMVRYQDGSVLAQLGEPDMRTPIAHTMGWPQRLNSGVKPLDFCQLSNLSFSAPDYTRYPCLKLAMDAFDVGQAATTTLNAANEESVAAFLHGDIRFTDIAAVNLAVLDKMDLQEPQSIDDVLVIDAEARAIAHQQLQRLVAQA

In the case of `O=CN(O)CCCP(=O)(O)O` [Compound 1a, Fosmidomycin], the pIC50 is given as 7.70.
